Measurements reported in ChEMBL document CHEMBL1201862, “PubChem BioAssay data set” (2004).
Blank lines part the entries; values can stand above or below the compound they belong to. Calls of active or inactive are those of the source.

Tests used:
[1] = NIH/3T3 fibroblast cytotoxicity, dose response, cytotoxicity control, cell-based, plate reader, dry powder, set 2 (AID 652280); assay type: functional; conditions: NIH3T3
cells [2] = conditions: HEK293
CAAX prenyl protease 2 [3] = target: T1, CAAX prenyl protease 2 (Homo sapiens, UniProt Q9Y256); test: human Rce1 protease inhibitors, dose response, biochemical, yeast membranes, quenched-peptide fluorescence, cherry-pick (AID 588849)
T1 sequence (Q9Y256 whole entry): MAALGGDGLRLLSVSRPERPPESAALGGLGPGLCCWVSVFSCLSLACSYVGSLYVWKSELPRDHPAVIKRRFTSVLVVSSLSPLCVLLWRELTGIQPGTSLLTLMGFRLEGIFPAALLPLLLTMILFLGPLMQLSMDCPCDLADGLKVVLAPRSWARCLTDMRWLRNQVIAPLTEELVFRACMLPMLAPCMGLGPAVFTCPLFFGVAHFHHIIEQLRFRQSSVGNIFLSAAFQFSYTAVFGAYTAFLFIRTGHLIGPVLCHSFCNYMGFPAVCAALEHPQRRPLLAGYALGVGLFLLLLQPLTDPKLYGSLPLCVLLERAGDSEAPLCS

cells [4] = test: cells
[5] = HepG2 cell cytotoxicity, dose response, cytotoxicity control, ATP luminescence, cherry-pick, set 6 (AID 1053125); assay type: functional, cell-based
Trypsin = Trypsin (Sus scrofa, UniProt P00761); test: porcine trypsin inhibitors, dose response, selectivity assay for Rce1 protease inhibitor project, biochemical, quenched peptide fluorescence, cherry-pick (AID 488789)
CAAX prenyl protease 2 [6] = target: T2, CAAX prenyl protease 2 (Saccharomyces cerevisiae S288c, UniProt Q03530); assay type: biochemical
T2 sequence (Q03530 whole entry): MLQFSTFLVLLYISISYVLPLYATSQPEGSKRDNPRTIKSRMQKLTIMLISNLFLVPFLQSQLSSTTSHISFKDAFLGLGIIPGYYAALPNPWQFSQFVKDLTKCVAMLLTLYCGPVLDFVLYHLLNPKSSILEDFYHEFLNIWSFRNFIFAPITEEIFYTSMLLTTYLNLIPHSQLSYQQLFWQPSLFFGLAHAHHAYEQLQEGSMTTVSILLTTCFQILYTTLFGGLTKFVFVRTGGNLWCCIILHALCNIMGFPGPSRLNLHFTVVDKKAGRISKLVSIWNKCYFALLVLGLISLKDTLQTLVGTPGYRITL

Kallikrein-7 = Kallikrein-7 (Homo sapiens, UniProt P49862); test: Fluorescence Intensity-based biochemical primary high throughput dose response assay to identify activators of kallikrein-7 (K7) zymogen.
[7] = EDANS-DABCYL fluorescence interference, concentration series, dose response, artefact control for kallikrein-7 zymogen activator project, biochemical, fluorescence intensity, triplicate (AID 720493)
[8] = target: T3, Calpain-2 catalytic subunit (Sus scrofa, UniProt P43367); test: pig calpain II inhibitor potency, dose response, biochemical, fluorogenic peptide substrate (AID 1420); assay type: functional
T3 sequence (P43367 whole entry): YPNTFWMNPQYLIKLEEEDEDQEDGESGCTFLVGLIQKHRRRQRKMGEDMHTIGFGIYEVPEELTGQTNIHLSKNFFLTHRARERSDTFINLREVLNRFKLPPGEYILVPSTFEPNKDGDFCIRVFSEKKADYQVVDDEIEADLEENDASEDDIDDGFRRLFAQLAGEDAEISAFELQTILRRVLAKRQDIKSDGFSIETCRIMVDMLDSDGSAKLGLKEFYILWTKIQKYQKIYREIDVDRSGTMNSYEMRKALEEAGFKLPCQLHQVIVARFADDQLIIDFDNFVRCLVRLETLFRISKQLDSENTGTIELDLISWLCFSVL

[9] = HepG2 cell cytotoxicity, dose response, cytotoxicity control, luminescence, dry powder, set 5 (AID 743185); assay type: functional, cell-based
[10] = YAP1 pathway inhibition via CTGF transcript levels, dose response, cell-based, DLD1 colon cancer, RT-qPCR, cherry-pick (AID 1053122); assay type: functional; conditions: Cancer cell lines
[11] = inhibitors of PGC1a acetylation in cells, dose response, cell-based, cherry-picked samples (AID 720514); assay type: functional;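 also: potency may reflect raised or lowered acetylation signal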
cells [12] = conditions: A549
[13] = HEp-2 cell cytotoxicity, dose response, cytotoxicity control for RSV inhibitor project, HTS (AID 2410); assay type: functional; conditions: human respiratory syncytial virus
[14] = HEK293 cell cytotoxicity, dose response, cytotoxicity control, HEK293T, ATP luminescence, dry powder (AID 652119); assay type: functional, cell-based
[15] = target: Protein disulfide-isomerase (Homo sapiens, UniProt P07237); test: PDI inhibitors, insulin turbidity readout, confirmation, biochemical, dry powder samples, set 2 (AID 652146)
[16] = target: Disintegrin and metalloproteinase domain-containing protein 17 (Homo sapiens, UniProt P78536); test: ADAM17 protease inhibitors, dose response, counter-screen for ADAM10 exosite inhibitor project, biochemical, quenched FRET substrate (AID 743253)
[17] = ADAM10 inhibitors, peptide cleavage, dose response, biochemical, QFRET (AID 743254);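 also: ADAM10 enzyme with the DM2 quenched FRET peptide as substrate; EDANS fluorescence gain as the protease cuts the substrate; inhibitor potency against ADAM10 proteolytic activity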
[18] = cytotoxicity toward NIH3T3 fibroblasts, dose response, counter-screen, cell-based, ATP luminescence, mouse fibroblasts (AID 2010); assay type: functional;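 also: cells exposed to compound for about 90 hours before reading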
[19] = inhibitors of intracellular T. cruzi replication, confirmation, NIH3T3 host cells, beta-gal luminescence (AID 2044); assay type: functional, cell-based;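 also: intracellular parasites grown in NIH/3T3 mouse fibroblasts as host cells; luminescent beta-galactosidase reporter signal from transgenic T. cruzi replicating inside host cells; inhibitors lower the luminescence signal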

Sequence of Kallikrein-7 (P49862 whole entry): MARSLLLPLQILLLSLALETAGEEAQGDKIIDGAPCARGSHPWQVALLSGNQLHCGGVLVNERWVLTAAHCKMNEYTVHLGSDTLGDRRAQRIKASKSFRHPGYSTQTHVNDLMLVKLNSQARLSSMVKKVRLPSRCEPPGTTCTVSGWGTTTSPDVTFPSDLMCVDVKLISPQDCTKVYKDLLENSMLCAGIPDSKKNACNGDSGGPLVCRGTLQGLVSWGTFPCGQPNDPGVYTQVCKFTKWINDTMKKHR
Sequence of Disintegrin and metalloproteinase domain-containing protein 17 (P78536 whole entry, the tested form may be a part): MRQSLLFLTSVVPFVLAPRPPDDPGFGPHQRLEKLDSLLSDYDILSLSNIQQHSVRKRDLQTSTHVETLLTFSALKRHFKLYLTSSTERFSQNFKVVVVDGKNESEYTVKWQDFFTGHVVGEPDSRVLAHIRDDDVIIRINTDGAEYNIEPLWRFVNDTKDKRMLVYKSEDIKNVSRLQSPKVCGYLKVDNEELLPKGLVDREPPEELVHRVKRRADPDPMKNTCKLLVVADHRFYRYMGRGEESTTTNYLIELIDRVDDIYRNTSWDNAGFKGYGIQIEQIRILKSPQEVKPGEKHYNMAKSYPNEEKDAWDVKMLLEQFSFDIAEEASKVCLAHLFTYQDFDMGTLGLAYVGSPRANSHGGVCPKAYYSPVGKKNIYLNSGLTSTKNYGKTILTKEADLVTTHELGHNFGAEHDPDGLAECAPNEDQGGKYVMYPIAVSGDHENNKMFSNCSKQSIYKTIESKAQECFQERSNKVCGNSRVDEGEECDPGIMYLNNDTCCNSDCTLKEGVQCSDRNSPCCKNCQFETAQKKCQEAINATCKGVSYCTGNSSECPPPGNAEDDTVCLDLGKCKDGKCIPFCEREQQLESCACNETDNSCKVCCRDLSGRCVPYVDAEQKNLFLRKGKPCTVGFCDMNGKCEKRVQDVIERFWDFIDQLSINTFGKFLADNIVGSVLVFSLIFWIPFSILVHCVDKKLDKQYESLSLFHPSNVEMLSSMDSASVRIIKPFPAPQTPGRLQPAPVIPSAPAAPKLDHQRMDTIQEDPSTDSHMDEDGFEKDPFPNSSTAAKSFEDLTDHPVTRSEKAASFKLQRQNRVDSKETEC
Sequence of Protein disulfide-isomerase (P07237 whole entry, the tested form may be a part): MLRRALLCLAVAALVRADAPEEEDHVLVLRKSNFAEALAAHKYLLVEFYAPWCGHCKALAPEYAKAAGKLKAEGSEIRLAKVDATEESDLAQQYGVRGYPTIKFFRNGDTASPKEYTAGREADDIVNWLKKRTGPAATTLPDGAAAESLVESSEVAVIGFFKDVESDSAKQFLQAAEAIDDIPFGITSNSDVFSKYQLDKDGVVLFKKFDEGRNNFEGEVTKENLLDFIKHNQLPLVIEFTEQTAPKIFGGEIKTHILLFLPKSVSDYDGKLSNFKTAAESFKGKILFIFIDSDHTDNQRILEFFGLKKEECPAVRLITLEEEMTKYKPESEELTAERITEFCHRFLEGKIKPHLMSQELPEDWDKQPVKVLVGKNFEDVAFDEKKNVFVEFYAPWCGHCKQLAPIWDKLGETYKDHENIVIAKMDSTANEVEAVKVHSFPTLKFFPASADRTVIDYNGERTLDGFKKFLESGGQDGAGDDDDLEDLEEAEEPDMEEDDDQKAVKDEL
Sequence of Trypsin (P00761 whole entry): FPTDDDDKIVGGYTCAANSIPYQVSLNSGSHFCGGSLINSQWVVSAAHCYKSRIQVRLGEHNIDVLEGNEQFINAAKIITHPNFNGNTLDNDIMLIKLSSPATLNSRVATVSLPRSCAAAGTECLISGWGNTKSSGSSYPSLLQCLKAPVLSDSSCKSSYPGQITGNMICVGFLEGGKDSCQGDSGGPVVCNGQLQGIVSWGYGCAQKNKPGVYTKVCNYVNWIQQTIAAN

SMILES: Cc1cccc(-c2ccc([C@H]3[C@H](CO)N4CCCCN(CCC(F)(F)F)C[C@@H]34)cc2)c1
AC50 [1]: 3.67 µM (active)

SMILES: COC(=O)C1=CN(CC2CCCO2)C=C(C(=O)OC)C1c1cccc(O)c1 (stereo not drawn)
AC50 (cells [2]): > 52 µM (inactive) | AC50 (CAAX prenyl protease 2 [3]): 2.08 µM (active) | AC50 (cells [4]): 11.1 µM (active) | AC50 [5]: > 52 µM (inactive) | AC50 (Trypsin): 9.88 µM (active) | AC50 (CAAX prenyl protease 2 [6]): 10.6 µM (active)

EC50 (Kallikrein-7): 16.5 µM (inactive) | IC50 [8]: 8.34 µM (not active)
SMILES: COc1ccc2c(c1)C(=O)CC(O)(C(F)F)O2 (stereo not drawn)
EC50 [7]: > 7.73 µM (active)

SMILES: O=C(N/N=C/c1c[nH]c2ccccc12)c1cccc(O)c1
AC50 [9]: > 52 µM (inactive)

SMILES: O=C(c1cccc(F)c1)N1CCCCN2[C@H](CO)[C@H](c3ccc(C#CC4(O)CCCC4)cc3)[C@@H]2C1
AC50 [10]: 2.86 µM (active)

SMILES: COC(=O)[C@@]1(Cc2ccccc2CN=[N+]=[N-])N=C(c2ccc(OCCCO)cc2)O[C@H]1c1ccccc1
AC50 [11]: 17.4 µM (active)

SMILES: CCN1CCc2c(sc(NC(=O)Nc3ccc(Cl)c(Cl)c3)c2C(N)=O)C1
AC50 (cells [2]): 15.2 µM (active) | AC50 (cells [12]): 15.3 µM (active) | CC50 [13]: 10.4 µM (active) | AC50 [5]: 15.4 µM (active)

SMILES: C=CCOc1ccc(CN2CCC(CCOc3ccccc3)(C(=O)NCC)CC2)cc1Cl
AC50 [14]: > 52 µM (inactive) | AC50 [15]: > 30 µM (inactive)

SMILES: O=S(=O)(c1ccc(NC(=S)NCCC(c2ccccc2)c2ccccc2)cc1)N1CCOCC1
IC50 [16]: > 69.5 µM (inactive) | IC50 [17]: 13.2 µM (inactive) | EC50 [18]: > 30 µM (not active) | EC50 [19]: 1.86 µM (active)
